Source: patent publication US20260008746A1, “CATIONIC LIPID COMPOUND WITH HIGH EFFICIENCY, LOW TOXICITY AND STABLE EXPRESSION, AND COMPOSITION COMPRISNG SAME” (HANGZHOU TIANLONG PHARMACEUTICAL CO., LTD, priority 2023, published 2026)

Legend:
293T cells [1] = assay: Fluorescent detection of Fluc-mRNA (cell transfection efficiency of LNP formulations); format: cell-based; conditions: for Relative light unit (RLU): LNP formulation containing 0.3 μg Fluc-mRNA, 96-well plate, 24 hours; for Multiples (YK-101): RLU of YK-101 / RLU of named substance; for Multiples (YK-107): RLU of YK-107 / RLU of named substance; for Multiples (YK-108): RLU of YK-108 / RLU of named substance; for Ratio relative to SM-102: RLU of named substance / RLU of SM-102; for fluorescence absorption value, times that of HHMA: RLU of named substance / RLU of HHMA; for fluorescence absorption value, times that of Lipofectamine 3000: RLU of named substance / RLU of Lipofectamine 3000; for Fluc-mRNA expression signal intensity, times that of compound 21: RLU of named substance / RLU of compound 21; for fluorescence absorption value, times that of compound 23: RLU of named substance / RLU of compound 23
Description: (§1) Cell recovery and passage: 293T cells were recovered, cultured in a culture dish, and passaged to the required number of cells.
(§2) Seeding plate: The cells in the culture dish were digested and counted. Cells were spread in a 96-well plate at 10,000 cells per well and in a 12-well plate at 150,000 cells per well. Cells were cultured overnight until the cells adhered to the wall.
Cell recovery and passage: the method was the same as in Example 3.
Seeding plate: the method was the same as in Example 3.
An LNP formulation containing 0.3 μg of Fluc-mRNA (the carrier components of the LNP formulation were cationic lipid, neutral lipid, structured lipid and polymer-conjugated lipid with a molar ratio of 49:10:39.5:1.5, wherein the cationic lipid was listed in Table 1) was added to the cell culture medium of a 96-well plate, and further incubated for 24 hours. The corresponding reagent was added according to the instructions of the Gaussia Luciferase Assay Kit, and the fluorescence expression intensity of each well was detected by an IVIS fluorescence detection system. This test verified the transfection efficiencies of LNP formulations in cells, see Tables 3-6 for specific test results.

293T cells [2] = assay: Cell survival rate determination (CCK-8); format: cell-based; conditions: for Cell survival rate (%): LNP formulation containing 1.5 μg Fluc-mRNA, 24 hours, CCK-8, absorbance at 450 nm; for cell survival rate lower than that of YK-101: cell survival rate of YK-101 minus that of named substance; for cell survival rate lower than that of YK-107: cell survival rate of YK-107 minus that of named substance; for cell survival rate lower than that of YK-108: cell survival rate of YK-108 minus that of named substance
Description: as §1, §2
An LNP formulation containing 1.5 μg of Fluc-mRNA (the cater component of the LNP formulation were cationic lipid, neutral lipid, structured lipid and polymer-conjugated lipid with a molar ratio of 49: 10: 39.5: 1.5, wherein the cationic lipid was listed in Table 1) and the formulation of Lipofectamine 3000 were added to the cell culture medium of a 96-well plate, and further cultivated for 24 hours. 10 μL of CCK-8 solution was then added to each well, and the culture plate was incubated in an incubator for 1 hour. The absorbance at 450 nm was measured by a microplate reader.

BALB/C mice = assay: In vivo imaging of Fluc-mRNA expression in mice delivered by LNP formulations; conditions: for average radiation intensity, 6 h / average radiation intensity, 24 h / average radiation intensity, 48 h / average radiation intensity, 7 d: LNP containing 10 pg Fluc-mRNA, intramuscular, female BALB/C mice
Description: The LNP formulation containing […] Fluc-mRNA was injected intramuscularly into female BALB/C mice aged 4-6 weeks old and weighed 17-19 g, and the mice were intraperitoneally injected with fluorescent imaging substrate at specific time points after administration (6h, 24 h, 48h and 7d), where the mice were allowed to move freely for 5 minutes, and then the average radiation intensity (corresponding to fluorescence expression intensity) of the protein expression of the mRNA carried by the LNP in the mice was detected by the IVIS Spectrum small animal in vivo imaging device. The test results are shown in Tables 11 to 14 and FIGS. 12 to 14.

[3] = highest multiple, time point not stated

## CCCCCCCCCCOC(=O)CCCN(CCCO)CCCCCC(=O)OCC(CCCCCCCC)CCCCCCCC [YK-107, 2-octyldecyl 6-(4-(decyloxy)-4-oxobutyl)((3-hydroxypropyl)amino)hexanoate]
293T cells [1]
  Relative light unit (RLU): 22361210 RLU
  Multiples (YK-101): 0.91
  Multiples (YK-107): 1.00
  Multiples (YK-108): 1.10
  Ratio relative to SM-102: 14.58
293T cells [2]
  Cell survival rate (%): 90.45%
BALB/C mice; 6 h
  average radiation intensity, 6 h: 1601250
BALB/C mice; 24 h
  average radiation intensity, 24 h: 1302640
BALB/C mice; 48 h
  average radiation intensity, 48 h: 226170
BALB/C mice; 7 d
  average radiation intensity, 7 d: 13288

## CCCCCCCCCCCOC(=O)CCCN(CCO)CCCCCCC(=O)OCCC(CCCCCC)CCCCCC [YK-108, 3-hexylnonyl 7-(4-(undecyloxy)-4-oxobutyl)((2-hydroxyethyl)amino)heptanoate]
293T cells [1]
  Relative light unit (RLU): 24660507 RLU
  Multiples (YK-101): 0.82
  Multiples (YK-107): 0.91
  Multiples (YK-108): 1.00
  Ratio relative to SM-102: 16.07
293T cells [2]
  Cell survival rate (%): 89.86%
BALB/C mice; 6 h
  average radiation intensity, 6 h: 2017280
BALB/C mice; 24 h
  average radiation intensity, 24 h: 1406010
BALB/C mice; 48 h
  average radiation intensity, 48 h: 230360
BALB/C mice; 7 d
  average radiation intensity, 7 d: 14194

## CCCCCCCCC(CCCCCCCC)COC(=O)CCCCCN(CCO)CCCCCC(=O)OCCCSSCCCCC [YK-111]
293T cells [1]
  cell transfection efficiency, times that of YK-110: 5 times
  Relative light unit (RLU): 1328301 RLU
  Multiples (YK-101): 15.31
  Multiples (YK-107): 16.83
  Multiples (YK-108): 18.57
  fluorescence absorption value, times that of HHMA: 0.65 times
  fluorescence absorption value, times that of Lipofectamine 3000: 1.24 times
  Ratio relative to SM-102: 0.87
  Fluc-mRNA expression signal intensity, times that of compound 21: 0.96 times
  fluorescence absorption value, times that of compound 23: 1.03 times
293T cells [2]
  Cell survival rate (%): 75.76%
  cell survival rate lower than that of YK-101: 14.36%
  cell survival rate lower than that of YK-107: 14.69%
  cell survival rate lower than that of YK-108: 14.10%
BALB/C mice; 6 h
  average radiation intensity of YK-101, times that of named substance: 2.3 times
  average radiation intensity of YK-107, times that of named substance: 2.4 times
  average radiation intensity of YK-108, times that of named substance: 3.0 times
  average radiation intensity, 6 h: 661800
BALB/C mice; 24 h
  average radiation intensity of YK-101, times that of named substance: 10.6 times
  average radiation intensity of YK-107, times that of named substance: 13.1 times
  average radiation intensity of YK-108, times that of named substance: 14.1 times
  average radiation intensity, 24 h: 99777
BALB/C mice; 48 h
  average radiation intensity of YK-101, times that of named substance: 9.2 times
  average radiation intensity of YK-107, times that of named substance: 11.1 times
  average radiation intensity of YK-108, times that of named substance: 11.3 times
  average radiation intensity, 48 h: 20312
BALB/C mice; 7 d
  average radiation intensity of YK-101, times that of named substance: 2.4 times
  average radiation intensity of YK-107, times that of named substance: 2.6 times
  average radiation intensity of YK-108, times that of named substance: 2.8 times
  average radiation intensity, 7 d: 5050

## CCCCCCCCCCOC(=O)CCCN(CCCCCC(=O)OCCC(CCCCCC)CCCCCC)CC(O)CO (centres unmarked) [YK-114, 3-hexylnonyl 6-(4-(decyloxy)-4-oxobutyl)((2,3-dihydroxypropyl)amino)hexanoate]
293T cells [1]
  Relative light unit (RLU): 1418926 RLU
  Multiples (YK-101): 14.33
  Multiples (YK-107): 15.76
  Multiples (YK-108): 17.38
  fluorescence absorption value, times that of HHMA: 0.69 times
  fluorescence absorption value, times that of Lipofectamine 3000: 1.32 times
  Ratio relative to SM-102: 0.92
  Fluc-mRNA expression signal intensity, times that of compound 21: 1.02 times
  fluorescence absorption value, times that of compound 23: 1.10 times
293T cells [2]
  Cell survival rate (%): 68.33%
  cell survival rate lower than that of YK-101: 21.79%
  cell survival rate lower than that of YK-107: 22.12%
  cell survival rate lower than that of YK-108: 21.53%
BALB/C mice; 6 h
  average radiation intensity of YK-101, times that of named substance: 2.8 times
  average radiation intensity of YK-107, times that of named substance: 3.0 times
  average radiation intensity of YK-108, times that of named substance: 3.8 times
  average radiation intensity, 6 h: 535760
BALB/C mice; 24 h
  average radiation intensity of YK-101, times that of named substance: 11.3 times
  average radiation intensity of YK-107, times that of named substance: 13.9 times
  average radiation intensity of YK-108, times that of named substance: 15.0 times
  average radiation intensity, 24 h: 93565
BALB/C mice; 48 h
  average radiation intensity of YK-101, times that of named substance: 9.8 times
  average radiation intensity of YK-107, times that of named substance: 11.9 times
  average radiation intensity of YK-108, times that of named substance: 12.1 times
  average radiation intensity, 48 h: 19004
BALB/C mice; 7 d
  average radiation intensity of YK-101, times that of named substance: 2.2 times
  average radiation intensity of YK-107, times that of named substance: 2.4 times
  average radiation intensity of YK-108, times that of named substance: 2.6 times
  average radiation intensity, 7 d: 5457
BALB/C mice; [3]
  expression amount of mRNA in mice of YK-101, times that of named substance: up to 11 times
  expression amount of mRNA in mice of YK-107, times that of named substance: ≤ 13 times

## CCCCCCCCCCOC(=O)CCCN(CCCCCC(=O)OCCC(CCCCCC)CCCCCC)C1CCCC1O (centres unmarked) [YK-120, 3-hexylnonyl 6-(4-(decyloxy)-4-oxobutyl)((2-hydroxycyclopentyl)amino)hexanoate]
293T cells [1]
  Relative light unit (RLU): 1403572 RLU
  Multiples (YK-101): 14.49
  Multiples (YK-107): 15.93
  Multiples (YK-108): 17.57
  fluorescence absorption value, times that of HHMA: 0.69 times
  fluorescence absorption value, times that of Lipofectamine 3000: 1.31 times
  Ratio relative to SM-102: 0.91
  Fluc-mRNA expression signal intensity, times that of compound 21: 1.01 times
  fluorescence absorption value, times that of compound 23: 1.09 times
293T cells [2]
  Cell survival rate (%): 73.43%
  cell survival rate lower than that of YK-101: 16.69%
  cell survival rate lower than that of YK-107: 17.02%
  cell survival rate lower than that of YK-108: 16.43%
BALB/C mice; 6 h
  average radiation intensity of YK-101, times that of named substance: 2.7 times
  average radiation intensity of YK-107, times that of named substance: 2.9 times
  average radiation intensity of YK-108, times that of named substance: 3.6 times
  average radiation intensity, 6 h: 559000
BALB/C mice; 24 h
  average radiation intensity of YK-101, times that of named substance: 11.1 times
  average radiation intensity of YK-107, times that of named substance: 13.7 times
  average radiation intensity of YK-108, times that of named substance: 14.8 times
  average radiation intensity, 24 h: 94779
BALB/C mice; 48 h
  average radiation intensity of YK-101, times that of named substance: 8.9 times
  average radiation intensity of YK-107, times that of named substance: 10.9 times
  average radiation intensity of YK-108, times that of named substance: 11.1 times
  average radiation intensity, 48 h: 20832
BALB/C mice; 7 d
  average radiation intensity of YK-101, times that of named substance: 2.4 times
  average radiation intensity of YK-107, times that of named substance: 2.6 times
  average radiation intensity of YK-108, times that of named substance: 2.8 times
  average radiation intensity, 7 d: 5052
